Publication PMC7570852, “Ruthenium(II)/(III) DMSO-Based Complexes of 2-Aminophenyl Benzimidazole with In Vitro and In Vivo Anticancer Activity” (Molecules, 2020)

Assays:
[1] = test system: human breast cancer (MCF7) cells; assay: MTT cell viability assay, MCF7; assay type: cell-based; details: 24 h
Description: The cytotoxic effect of the Hapbim ligand and its complexes (1) and (2) on human breast cancer (MCF7), human colorectal cancer (Caco2), and human normal liver (THLE-2) cell lines was evaluated by the MTT assay. The cells were cultured in a 96-well plate (1 × 10^4 cells/well, 100 μL/well) containing DMEM medium provided with 10% fetal bovine serum, and 1% penicillin/streptomycin. Then, the cells were incubated at 37 °C for 24 h in a CO2 incubator under 5% CO2, 95% air until reaching a confluence of 70–80%. A 20 μL volume of each compound at different concentrations (from 5 to 400 μM for the cancer cell and from 600 to 1000 μM for the normal cells) was added and the cells were re-incubated for a further 24 h. After the incubation period, the cells were incubated again with 5 mg/mL of MTT for 4 h and then the medium was replaced with 100 μL DMSO and vortexed for 20 min. Finally, the absorbance was recorded at 570 nm using the microplate reader. […] To calculate the cell inhibition percentage, the following equation was used:% Cell inhibition = 100 − % cell viability ((At − Ab)/(Ac − Ab)) × 100%)(4) where At is the absorbance value of tested compound; Ab is the absorbance value of blank; Ac is the absorbance value of the control.

[2] = Solution stability by UV-Vis spectroscopy; assay type: physicochemical; details: 4% DMSO, 96% PBS, pH 7.4, over 24 h
Description: Stability studies of complexes (1) and (2) were carried out by UV-Vis spectroscopy in the 200–900 nm range. […] The electronic spectra for the solutions were measured over 24 h.

CS(C)=O.Nc1ccccc1-c1nc2ccccc2[nH]1.O.[Cl][Ru]([Cl])[Cl] [(2), [Ru(III)Cl3(DMSO)(Hapbim)]·H2O]
IC50 MCF-7 [1]: 118 ± 8 µg/mL
IC50 ([1]; read-out: IC50 MCF-7): 230 ± 10 µM
solution stability (UV-Vis spectral change) [2]: changes in absorption bands near 288, 326, and 690 nm after 1 h
